Broadly, the IC50 is the concentration that gives 50% inhibition. High values mean lower potency, low ones higher potency.

The experiment deals with T1, hNK2 receptor (Homo sapiens, UniProt P21452).
T1 construct: host or cells: CHO cells
T1 sequence (P21452 1-398): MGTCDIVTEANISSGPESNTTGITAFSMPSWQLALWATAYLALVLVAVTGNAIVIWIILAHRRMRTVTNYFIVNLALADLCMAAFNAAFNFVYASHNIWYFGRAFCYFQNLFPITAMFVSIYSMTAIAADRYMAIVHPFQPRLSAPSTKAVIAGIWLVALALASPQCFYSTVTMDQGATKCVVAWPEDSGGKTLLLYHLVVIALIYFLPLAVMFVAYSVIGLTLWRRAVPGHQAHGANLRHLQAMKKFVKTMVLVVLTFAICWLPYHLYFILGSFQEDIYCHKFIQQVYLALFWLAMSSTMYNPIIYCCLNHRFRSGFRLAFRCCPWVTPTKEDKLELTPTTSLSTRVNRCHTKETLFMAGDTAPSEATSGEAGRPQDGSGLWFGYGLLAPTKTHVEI
In words: Radio-ligand ([125I]-NKA) receptor binding inhibitory activity using membrane fraction of hNK2 receptor-expressing CHO cell. The note with it: membrane fraction of hNK2 receptor-expressing CHO cells, 25° C., 30 min. The method in brief:
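Inhibition of [125I]-NKA binding ([…] solution added) measured after 30 min at 25 °C using hNK2-CHO membrane fraction (20 μg/mL suspension) in pH 7.4 Tris buffer containing MnCl2, BSA and protease inhibitors. Filter-bound counts read; activity calculated as fraction of specific binding, non-specific defined with unlabeled NKA.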
`N#Cc1cccc(C(=O)N[C@@H]2CCCC[C@@H]2C(=O)N2CC[C@@H]3[C@H](c4ncc[nH]4)Nc4ccccc4[C@@H]32)c1` [Example 308, 3-Cyano-N-((1R,2S)-2-{[(3aR,4R,9bR)-4-(1H-imidazol-2-yl)-2,3,3a,4,5,9b-hexahydro-1H-pyrrolo[3,2-c]quinolin-1-yl]carbonyl}cyclohexyl)benzamide] came in with an IC50 of less than 1 nM. For `COC[C@@H]1Nc2ccccc2[C@H]2[C@@H]1CCN2C(=O)[C@H]1CCCC[C@H]1NC(=O)Nc1ccc(C#N)c(C)c1` [Example 283, N-(4-Cyano-3-methylphenyl)-N′-((1R,2S)-2-{[(3aR,4R,9bR)-4-(methoxymethyl)-2,3,3a,4,5,9b-hexahydro-1H-pyrrolo[3,2-c]quinolin-1-yl]carbonyl}cyclohexyl)urea], the IC50 was less than 1 nM. To `O=C(Nc1ccc(C(F)(F)F)cc1)N[C@@H]1CCCC[C@@H]1C(=O)N1CC[C@@H]2[C@H](c3ccccc3)Nc3ccccc3[C@@H]21` [Example 140, N-((1R,2S)-2-{[(3aR,4R,9bR)-4-Phenyl-2,3,3a,4,5,9b-hexahydro-1H-pyrrolo[3,2-c]quinolin-1-yl]carbonyl}cyclohexyl)-N′-[4-(trifluoromethyl)phenyl]urea] belongs less than 10 nM; to `COc1ccc(NC(=O)N[C@@H]2CCCC[C@@H]2C(=O)N2CC[C@@H]3[C@H](c4ccccc4)Nc4ccccc4[C@@H]32)cc1` [Example 137, N-(4-Methoxyphenyl)-N′-((1R,2S)-2-{[(3aR,4R,9bR)-4-phenyl-2,3,3a,4,5,9b-hexahydro-1H-pyrrolo[3,2-c]quinolin-1-yl]carbonyl}cyclohexyl)urea], less than 1 nM; to `NC(=O)c1ccc(NC(=O)N[C@@H]2CCCC[C@@H]2C(=O)N2CC[C@@H]3[C@H](c4ccccc4)Nc4ccccc4[C@@H]32)cc1` [Example 160, 4-({[((1R,25)-2-{[(3aR,4R,9bR)-4-Phenyl-2,3,3a,4,5,9b-hexahydro-1H-pyrrolo[3,2-c]quinolin-1-yl]carbonyl}cyclohexyl)amino]carbonyl}amino)benzamide], less than 1 nM. The compound `O=C(/C=C/c1ccc(C(F)(F)F)cc1)N[C@@H]1CCCC[C@@H]1C(=O)N1CC[C@@H]2[C@H](c3ccccc3)Nc3ccccc3[C@@H]21` [Example 106, (2E)-N-((1R,2S)-2-{[(3aR,4R,9bR)-4-Phenyl-2,3,3a,4,5,9b-hexahydro-1H-pyrrolo[3,2-c]quinolin-1-yl]carbonyl}cyclohexyl)-3-[4-(trifluoromethyl)phenyl]acrylamide] registered an IC50 of less than 10 nM. Compound `Cn1cccc1[C@@H]1Nc2ccccc2[C@H]2[C@@H]1CCN2C(=O)[C@H]1CCCC[C@H]1NC(=O)c1ccccc1` (relative stereo) [Example 23, N-((1R,2S)-2-{[(3aR*,4R*,9bR*)-4-(1-Methyl-1H-pyrrol-2-yl)-2,3,3a,4,5,9b-hexahydro-1H-pyrrolo[3,2-c]quinolin-1-yl]carbonyl}cyclohexyl)benzamide] gave an IC50 of less than 10 nM. As for `COC[C@@H]1Nc2ccccc2[C@H]2[C@@H]1CCN2C(=O)[C@H]1CCCC[C@H]1NC(=O)c1ccc2[nH]nnc2c1` [Example 219, N-((1R,2S)-2-{[(3aR,4R,9bR)-4-(methoxymethyl)-2,3,3a,4,5,9b-hexahydro-1H-pyrrolo[3,2-c]quinolin-1-yl]carbonyl}cyclohexyl)-1H-1,2,3-benzotriazole-5-carboxamide], the IC50 is less than 1 nM. The result for `O=C(NC1CCCCC1)N[C@@H]1CCCC[C@@H]1C(=O)N1CC[C@@H]2[C@H](c3ccccc3)Nc3ccccc3[C@@H]21` [Example 149, N-Cyclohexyl-N′-((1R,2S)-2-{[(3aR,4R,9bR)-4-phenyl-2,3,3a,4,5,9b-hexahydro-1H-pyrrolo[3,2-c]quinolin-1-yl]carbonyl}cyclohexyl)urea] reads less than 10 nM; that for `Cc1nc2cc(C(=O)N[C@@H]3CCCC[C@@H]3C(=O)N3CC[C@@H]4[C@H](c5ccsc5)Nc5ccccc5[C@@H]43)ccc2[nH]1` [Example 192, 2-Methyl-N-((1R,2S)-2-{[(3aR,4R,9bR)-4-(3-thienyl)-2,3,3a,4,5,9b-hexahydro-1H-pyrrolo[3,2-c]quinolin-1-yl]carbonyl}cyclohexyl)-1H-benzimidazole-5-carboxamide], less than 1 nM; that for `O=C(CCc1ccccc1)N[C@@H]1CCCC[C@@H]1C(=O)N1CC[C@@H]2[C@H](c3ccccc3)Nc3ccccc3[C@@H]21` [Example 103, 3-Phenyl-N-((1R,2S)-2-{[(3aR,4R,9bR)-4-phenyl-2,3,3a,4,5,9b-hexahydro-1H-pyrrolo[3,2-c]quinolin-1-yl]carbonyl}cyclohexyl)propanamide], less than 1 nM.

For `COC[C@@H]1Nc2ccccc2[C@H]2[C@@H]1CCN2C(=O)[C@H]1CCCC[C@H]1NC(=O)c1ccc(C#N)c(OC)c1` [Example 274, 4-Cyano-3-methoxy-N-((1R,2S)-2-{[(3aR,4R,9bR)-4-(methoxymethyl)-2,3,3a,4,5,9b-hexahydro-1H-pyrrolo[3,2-c]quinolin-1-yl]carbonyl}cyclohexyl)benzamide], the IC50 is less than 10 nM. The result for `COC[C@@H]1Nc2ccccc2[C@H]2[C@@H]1CCN2C(=O)[C@H]1CCCC[C@H]1NC(=O)Nc1ccc(-n2cccn2)cc1` [Example 284, N-((1R,2S)-2-{[(3aR,4R,9bR)-4-(methoxymethyl)-2,3,3a,4,5,9b-hexahydro-1H-pyrrolo[3,2-c]quinolin-1-yl]carbonyl}cyclohexyl)-N′-[4-(1H-pyrazol-1-yl)phenyl]urea] reads less than 1 nM.

The compound `CNc1ccc(C(=O)N[C@@H]2CCCC[C@@H]2C(=O)N2CC[C@@H]3[C@H](COC)Nc4ccccc4[C@@H]32)cc1` [Example 239, N-((1R,2S)-2-{[(3aR,4R,9bR)-4-(Methoxymethyl)-2,3,3a,4,5,9b-hexahydro-1H-pyrrolo[3,2-c]quinolin-1-yl]carbonyl}cyclohexyl)-4-(methylamino)benzamide] displayed an IC50 of less than 1 nM. To `COC[C@@H]1Nc2ccccc2[C@H]2[C@@H]1CCN2C(=O)[C@H]1CCCC[C@H]1NC(=O)c1ccc(S(C)(=O)=O)cc1` [Example 278, N-((1R,2S)-2-{[(3aR,4R,9bR)-4-(Methoxymethyl)-2,3,3a,4,5,9b-hexahydro-1H-pyrrolo[3,2-c]quinolin-1-yl]carbonyl}cyclohexyl)-4-(methylsulfonyl)benzamide] belongs less than 10 nM; to `Cc1ccc(C(=O)N[C@@H]2CCCC[C@@H]2C(=O)N2CC[C@@H]3[C@H](c4ccccc4)Nc4ccccc4[C@@H]32)cc1` [Example 99, 4-Methyl-N-((1R,2S)-2-{[(3aR,4R,9bR)-4-phenyl-2,3,3a,4,5,9b-hexahydro-1H-pyrrolo[3,2-c]quinolin-1-yl]carbonyl}cyclohexyl)benzamide], less than 10 nM; to `COC[C@@H]1Nc2ccccc2[C@H]2[C@@H]1CCN2C(=O)[C@H]1CCCC[C@H]1NC(=O)c1ccc2c(c1)CCO2` [Example 248, N-((1R,2S)-2-{[(3aR,4R,9bR)-4-(Methoxymethyl)-2,3,3a,4,5,9b-hexahydro-1H-pyrrolo[3,2-c]quinolin-1-yl]carbonyl}cyclohexyl)-2,3-dihydro-1-benzofuran-5-carboxamide], less than 1 nM. To `O=C(N[C@@H]1CCCC[C@@H]1C(=O)N1CC[C@@H]2[C@H](c3ccccc3)Nc3c(F)cccc3[C@@H]21)c1ccccc1` (relative stereo) [Example 8, N-((1R,2S)-2-{[(3aR*,4R*,9bR*)-6-Fluoro-4-phenyl-2,3,3a,4,5,9b-hexahydro-1H-pyrrolo[3,2-c]quinolin-1-yl]carbonyl}cyclohexyl)benzamide] belongs less than 10 nM; to `Cn1ccnc1[C@@H]1Nc2ccccc2[C@H]2[C@@H]1CCN2C(=O)[C@H]1CCCC[C@H]1NC(=O)c1ccccc1` [Example 82, N-((1R,2S)-2-{[(3aR,4R,9bR)-4-(1-Methyl-1H-imidazol-2-yl)-2,3,3a,4,5,9b-hexahydro-1H-pyrrolo[3,2-c]quinolin-1-yl]carbonyl}cyclohexyl)benzamide], less than 10 nM; to `O=C(N[C@@H]1CCCC[C@@H]1C(=O)N1CC[C@@H]2[C@H](c3ccccn3)Nc3ccccc3[C@@H]21)c1ccccc1` (relative stereo) [Example 19, N-((1R,2S)-2-{[(3aR*,4R*,9bR*)-4-Pyridin-2-yl-2,3,3a,4,5,9b-hexahydro-1H-pyrrolo[3,2-c]quinolin-1-yl]carbonyl}cyclohexyl)benzamide], less than 10 nM. With `COC[C@@H]1Nc2ccccc2[C@H]2[C@@H]1CCN2C(=O)[C@H]1CCCC[C@H]1NC(=O)c1ccc(-n2cccn2)nc1` [Example 288, N-((1R,2S)-2-{[(3aR,4R,9bR)-4-(Methoxymethyl)-2,3,3a,4,5,9b-hexahydro-1H-pyrrolo[3,2-c]quinolin-1-yl]carbonyl}cyclohexyl)-6-(1H-pyrazol-1-yl)nicotinamide], the IC50 was less than 1 nM. To `CCNC(=O)N[C@@H]1CCCC[C@@H]1C(=O)N1CC[C@@H]2[C@H](c3ncc[nH]3)Nc3ccccc3[C@@H]21` [Example 295, N-Ethyl-N′-((1R,2S)-2-{[(3aR,4R,9bR)-4-(1H-imidazol-2-yl)-2,3,3a,4,5,9b-hexahydro-1H-pyrrolo[3,2-c]quinolin-1-yl]carbonyl}cyclohexyl)urea] belongs less than 10 nM; to `NC(=O)c1ccc(C(=O)N[C@@H]2CCCC[C@@H]2C(=O)N2CC[C@@H]3[C@H](c4ncc[nH]4)Nc4ccccc4[C@@H]32)cc1` [Example 306, N-((1R,2S)-2-{[(3aR,4R,9bR)-4-(1H-Imidazol-2-yl)-2,3,3a,4,5,9b-hexahydro-1H-pyrrolo[3,2-c]quinolin-1-yl]carbonyl}cyclohexyl)terephthalamide], less than 10 nM.

(Values after patent publication US7943770B2, “Fused quinoline derivative and use thereof” (Takeda Pharmaceutical Company Limited, priority 2004, dated 2011).)
